Assay results reported in ChEMBL document CHEMBL1130741, “Carboxy-substituted 2-azetidinones as cholesterol absorption inhibitors” (1998).

Assays:
Assay type in all cases: functional, Cricetulus griseus
Cricetinae gen. sp. [1] = test: Compound was tested for percent reduction of liver cholesterol esters absorption in cholesterol fed hamster model at an oral dose of 3 mg/kg/day
Cricetinae gen. sp. [2] = test: Compound was tested for percent reduction of serum cholesterol absorption in cholesterol fed hamster model at an oral dose of 3 mg/kg/day
Cricetinae gen. sp. [3] = test: Compound was tested for percent reduction of liver cholesterol esters absorption in cholesterol fed hamster model at an oral dose of 10 mg/kg/day
Cricetinae gen. sp. [4] = test: Compound was tested for percent reduction of serum cholesterol absorption in cholesterol fed hamster model at an oral dose of 10 mg/kg/day
Cricetinae gen. sp. [5] = test: Dose required to inhibit cholesterol absorption in cholesterol fed hamster model
Cricetinae gen. sp. [6] = test: Compound was tested for percent reduction of liver cholesterol esters absorption in cholesterol fed hamster model at an oral dose of 50 mg/kg/day

Structure (SMILES) | Reduction (Cricetinae gen. sp. [1]) [%] | Reduction (Cricetinae gen. sp. [2]) [%] | Reduction (Cricetinae gen. sp. [3]) [%] | Reduction (Cricetinae gen. sp. [4]) [%] | Reduction (Cricetinae gen. sp. [6]) [%] | other results
O=C(O)c1ccc([C@@H]2[C@@H](CCCc3ccccc3)C(=O)N2c2ccc(F)cc2)cc1 | -37 | 0 |  |  |  | 
CCN(CC)C(=O)CCc1ccc([C@@H]2[C@@H](CCCc3ccccc3)C(=O)N2c2ccc(F)cc2)cc1 |  |  | -19 | 0 |  | 
COC(=O)CCc1ccc([C@@H]2[C@@H](CCCc3ccccc3)C(=O)N2c2ccc(OC)cc2)cc1 | -76 | -20 |  |  |  | ED50 (Cricetinae gen. sp. [5]): 0.85 mg/kg/day
COC(=O)Cc1ccc([C@@H]2[C@@H](CCCc3ccccc3)C(=O)N2c2ccc(OC)cc2)cc1 | -89 | -26 |  |  |  | ED50 (Cricetinae gen. sp. [5]): 0.95 mg/kg/day
COC(=O)c1ccc([C@@H]2[C@@H](CCCc3ccccc3)C(=O)N2c2ccc(F)cc2)cc1 | -16 | 0 |  |  |  | 
COc1ccc([C@@H]2[C@@H](CCCc3ccccc3)C(=O)N2c2ccc(OC)cc2)cc1 (racemic) [SCH-48461] |  |  |  |  | -78 | 
O=C(O)Cc1ccc([C@@H]2[C@@H](CCCc3ccccc3)C(=O)N2c2ccc(F)cc2)cc1 |  |  | -97 | -44 |  | ED50 (Cricetinae gen. sp. [5]): 1.1 mg/kg/day
COc1ccc([C@@H]2[C@@H](CCCc3ccccc3)C(=O)N2c2ccc(OC)cc2)cc1 [SCH-48461] |  |  | -93 | -43 |  | ED50 (Cricetinae gen. sp. [5]): 2 mg/kg/day
COC(=O)CCc1ccc([C@@H]2[C@@H](CCCc3ccccc3)C(=O)N2c2ccc(OC)cc2)cc1 (racemic) |  |  |  |  | -93 | 
COC(=O)C(C)(C)Oc1ccc([C@@H]2[C@@H](CCCc3ccccc3)C(=O)N2c2ccc(OC)cc2)cc1 |  |  |  |  | -80 | 
CCN(CC)C(=O)Cc1ccc([C@@H]2[C@@H](CCCc3ccccc3)C(=O)N2c2ccc(F)cc2)cc1 |  |  | -19 | 0 |  | 
COC(=O)CCc1ccc([C@@H]2[C@@H](CCCc3ccccc3)C(=O)N2c2ccc(F)cc2)cc1 |  |  | -72 | -26 |  | 
O=C(O)CCc1ccc([C@@H]2[C@@H](CCCc3ccccc3)C(=O)N2c2ccc(F)cc2)cc1 |  |  | -63 | -32 |  | 
COc1ccc(N2C(=O)[C@H](CCCc3ccccc3)[C@H]2c2ccc(OC(C)(C)C(=O)O)cc2)cc1 (racemic) |  |  |  |  | -75 | 
COC(=O)Cc1ccc([C@@H]2[C@@H](CCCc3ccccc3)C(=O)N2c2ccc(F)cc2)cc1 | -61 | -16 |  |  |  | 
COC(=O)/C=C/c1ccc([C@@H]2[C@@H](CCCc3ccccc3)C(=O)N2c2ccc(OC)cc2)cc1 |  |  |  |  | -90 | 
